Reference: patent publication US11866433B2, “Diarylthiohydantoin compound as androgen receptor antagonist” (CHIA TAI TIANQING PHARMACEUTICAL GROUP CO., LTD., priority 2017, dated 2024)

Tests used:
Type in all cases: in vivo
[1] = Pharmacokinetic test of Compound 35 and Compound 58 in mice (intravenous and intragastric); conditions: mouse, plasma, male CD-1 mice; for AUC(0-t): read-out: Curve Area (0-t) AUC0-last; for Cmax: read-out: Plasma Concentration Cmax; for Tmax: read-out: Time to Peak Tmax; for Vd: read-out: Apparent Volume of Distribution Vdss; for clearance: read-out: Clearance Rate CI; for AUC(0-inf): read-out: Curve Area (0-inf) AUC0-inf; for half-life: read-out: Half Life T1/2 (converted)
Method: With reference to Example 76, the pharmacokinetic behaviors of Compound 35 and Compound 58 in mice were investigated and their pharmacokinetic profiles were evaluated.
2. Experimental Protocol Refers to Example 76.
(§1) After Compound 35 and Compound 58 were intravenously administered to the male CD-1 mice, 30 μL of blood was cross-collected at 0.0833, 0.25, 0.5, 1, 2, 4, 8, 24, and 48 h respectively, and placed in test tubes containing 2 μL of EDTA-K2. After Compound 35 and Compound 58 were administered to the intragastric administration group, 30 μL of blood was cross-collected at 0.25, 0.5, 1, 2, 4, 8, 24, and 48 h respectively, and placed in test tubes containing 2 μL of EDTA-K2. The test tubes was centrifuged at 3000 g for 15 min to separate the plasma, which was stored at −60° C. The animals were allowed to eat 4 hours after administration.
(§2) After intravenous and intragastric administration to the mice, the content of the test compound in plasma was determined by the LC/MS/MS method. The linear range of the method was 2.00-6000 nmol/L; and the plasma samples were analyzed after the treatment with acetonitrile precipitated protein.

[2] = Tissue distribution test of Compound 35 and Compound 58 (plasma and brain); conditions: intragastric 2 mg/kg, 4 h after administration, male CD-1 mice; for Kp at 4 h / concentration at 4 h: mouse, oral; for Kp at 4 h: brain / plasma, read-out: Brain to Blood Ratio; for concentration at 4 h: plasma
Method: Taking male CD-1 mice as test animals, drug concentrations in plasma and brain after intragastric administration of Compound 35 and Compound 58 to the mice were determined by the LC/MS/MS method, respectively.
2.2 Test Animals: Two healthy adult male CD-1 mice. The animals were purchased from Shanghai Sippr-BK Laboratory Animal Co., Ltd.
An appropriate amount of sample was weighed, and added in a solution of 0.5% CMC+0.2% Tween in water. After stirring and ultrasonic processing, the resulting mixture reached a suspension state of 0.4 mg/mL.
Two male CD-1 mice were fasted overnight, and intragastrically administered at an administration volume of 5 mL/kg in a dose of 2 mg/kg.
(§3) After Compound 35 and Compound 58 were intragastrically administered to the male CD-1 mice, 100 μL of blood was collected by cardiac puncture at 4 h, placed in a test tube containing 2 μl of EDTA-K2, and centrifuged at 3000 g for 15 min to separate 30 μL of plasma, which was stored at −60° C. Meanwhile, brain tissues were collected, washed, then homogenized with 9-fold 15 mM PBS/MeOH (v:v, 2:1), and stored at −60° C. The animals were allowed to eat 4 hours after administration.
(§4) After intragastric administration to the mice, the content of the test compound in plasma and brain was determined by the LC/MS/MS method. The linear range of the method was 2.00-6000 nmol/L; and the plasma samples were analyzed after the treatment with acetonitrile precipitated protein.

[3] = Tissue distribution test of Compound 27 and Compound 10 (plasma and brain); conditions: intragastric 2 mg/kg, 2 h after administration, male CD-1 mice
Method: Taking male CD-1 mice as test animals, drug concentrations in plasma and brain after intragastric administration of Compound 27 and Compound 10 to the mice were determined by the LC/MS/MS method, respectively.
2.2 Test Animals: Six healthy adult male CD-1 mice were divided into 2 groups, with 3 mice in each group, according to the principle of similar body weight. The animals were purchased from Shanghai Super-BK Laboratory Animal Co., Ltd., with Animal Production License No.: SCXK (Shanghai) 2013-0016.
(§5) An appropriate amount of sample was weighed, and an appropriate amount of DMSO, PEG400 and water were added successively at a volume ratio of 10:40:50. After stirring and ultrasonic processing, the resulting mixture reached a clear solution state of 0.4 mg/mL.
Six male CD-1 mice were divided into 2 groups, fasted overnight, and intragastrically administered at an administration volume of 5 mL/kg in a dose of 2 mg/kg.
as §3, with “Compound 27” for “Compound 35”, “Compound 10” for “Compound 58”, “at 2” for “at 4”, “separate 50” for “separate 30”, “with 5-fold” for “with 9-fold”, “eat 2” for “eat 4”
as §4

[4] = Pharmacokinetic test of Compound 10 in mice (intravenous and intragastric); conditions: mouse, plasma, male CD-1 mice; for AUC(0-inf): read-out: Curve Area (0-inf) AUC0-inf; for AUC(0-t): read-out: Curve Area (0-t) AUC0-last; for half-life: read-out: Half Life T1/2 (converted)
Method: Taking male CD-1 mice as test animals, drug concentrations in plasma at different moments after intravenous and intragastric administration of Compound 10 to the mice were determined by the LC/MS/MS method. The pharmacokinetic behavior of Compound 10 in mice was investigated and its pharmacokinetic profile was evaluated.
2.2 Test Animals: Four healthy adult male CD-1 mice were divided into 2 groups, with 2 mice in each group, according to the principle of similar body weight. The animals were purchased from Shanghai Super-BK Laboratory Animal Co., Ltd., with Animal Production License No.: SCXK (Shanghai) 2013-0016.
as §5, with “2.3 Drug Preparation An” for “An”, “mg/mL for intravenous administration.” for “mg/mL.”
An appropriate amount of sample was weighed, and dissolved in a solution of 0.5% CMC+0.2% Tween 80. After stirring and ultrasonic processing, the resulting mixture reached a uniform suspension state of 0.4 mg/mL for intragastric administration.
Four male CD-1 mice were divided into 2 groups, and fasted overnight. The first group was intravenously administered at an administration volume of 2.5 mL/kg in a dose of 1 mg/kg; and the second group was intragastrically administered at an administration volume of 5 mL/kg in a dose of 2 mg/kg.
as §1, with “Compound 10 was” for “Compound 35 and Compound 58 were”, “was collected” for “was cross-collected”, “8,” for “8, 24,”, “and 24” for “and 48”, “tubes were” for “tubes was”, “eat 2” for “eat 4”
as §2

[5] = po, intragastric administration, 2 mg/kg
[6] = intravenous administration, 1 mg/kg

| Structure (SMILES) | AUC(0-t) [1, 5] | Cmax [1, 5] | Tmax [1, 5] | Vd [1, 6] | clearance [1, 6] | AUC(0-inf) [1, 6] | AUC(0-t) [1, 6] | half-life [1, 6] | Concentration in Brain [2] | Kp at 4 h [2] | concentration at 4 h [2] | further results |
| --- | --- | --- | --- | --- | --- | --- | --- | --- | --- | --- | --- | --- |
| CCc1cc(=O)n2cc(N3C(=S)N(c4ccc(C#N)c(C(F)(F)F)c4)C(=O)C3(C)C)cc(F)c2n1 [Compound 35] | 110 µM·h | 5.78 µM | 6 h | 0.667 L/kg | 0.189 mL/min/kg | 194 µM·h | 58.7 µM·h | 45.1 h | 281 nmol/kg | 0.0742 | 4.12 µM | bioavailability [1, 5]: 94% |
| CCc1nc(OCCO)c2cc(N3C(=S)N(c4ccc(C#N)c(C(F)(F)F)c4)C(=O)C3(C)C)cc(F)c2n1 [Compound 10] |  |  |  |  |  |  |  |  |  |  |  | Concentration in Brain [3]: 67.38 ± 44.5 nmol/kg; Kp at 2 h ([3]; mouse, brain / plasma, oral, read-out: Brain to Blood Ratio): 0.0133 ± 0.0006; concentration at 2 h ([3]; mouse, plasma, oral): 5 ± 3.16 µM; bioavailability [4, 5]: 41.7%; AUC(0-inf) [4, 5]: 27.9 µM·h; AUC(0-t) [4, 5]: 26.3 µM·h; half-life [4, 5]: 5.5 h; Cmax ([4]; po, intragastric administration, 2 mg/kg, read-out: Plasma Concentration Cmax): 2.77 µM; Tmax ([4]; po, intragastric administration, 2 mg/kg, read-out: Time to Peak Tmax): 4 h; Vd ([4]; intravenous administration, 1 mg/kg, read-out: Apparent Volume of Distribution Vdss): 0.384 L/kg; clearance ([4]; intravenous administration, 1 mg/kg, read-out: Clearance Rate CI): 0.912 mL/min/kg; AUC(0-inf) [4, 6]: 33.5 µM·h; AUC(0-t) [4, 6]: 32.3 µM·h; half-life [4, 6]: 4.88 h |
| CCc1cc(=O)n2cc(N3C(=S)N(c4ccc(C#N)c(Cl)c4)C(=O)C3(C)C)cc(F)c2n1 [Compound 58] | 370 µM·h | 12.8 µM | 8 h | 0.248 L/kg | 0.0794 mL/min/kg | 447 µM·h | 271 µM·h | 36.6 h | 265 nmol/kg | 0.0322 | 8.26 µM |  |
